{FAM} = 6-carboxyfluorescein (6FAM) label
Legend:
human RPA70AB = molecular target: T1, human RPA70AB (Homo sapiens, UniProt P27694); assay: FP saturation binding of probe to RPA70AB; conditions: probe 12.5 nM, mean ± SEM, n = 3, listed as 5′-6FAM DNA probe
T1 construct: recombinant human RPA70AB (181-422) in a pSV281 vector; 6xHis (TEV site) (N, cleaved yes); made in house; host or cells: Escherichia coli BL21(DE3)
Description: (§1) The LOPAC pilot screen identified the sulfhydryl reagent 4-chloromercuribenzoic acid as an inhibitor in the fluorescence polarization (FP) assay. As there was no known Mcm10 inhibitor, 4-chloromercuribenzoic acid (30 μM) was used as a positive control on initial screening plates. Following the discovery of suramin as a Mcm10 inhibitor, suramin (7 μM) was used as a positive control on subsequent screening plates. To confirm activity, screening hits were tested in dose response experiments (8 concentrations in duplicate) using xMcm10-ID. Similar dose response experiments were conducted with suramin and its analogs to confirm activity for hMcm10-ID (1 μM) and xMcm10-FL (2 μM) and to determine selectivity relative to RPA70AB (0.4 μM). […] FP was measured in mP units, and ∆mP values for each well were calculated as the difference between the measured mP and the average of the “probe only” controls. […] The parallel and perpendicular mP values were also used to calculate total fluorescence intensity (TFI) determined by the sum of parallel mP + (2 x perpendicular mP). TFI was used to detect fluorescence interference by compounds [1]. […] IC50 values were calculated using the four parameter logistic equation in Prism 6.0 (GraphPad). […] KD values were calculated using the one site or two site binding equations in Prism 6.0 (GraphPad). […]

hMcm10-ID = molecular target: T2, hMcm10-ID (Homo sapiens, UniProt Q7L590); assay: FP saturation binding of probe to hMcm10-ID; conditions: probe 12.5 nM, mean ± SEM, n = 3
T2 construct: hMcm10-ID (residues 237 to 436) were expressed in E. coli strain BL21(DE3); 6xHis (HRV 3C site) (N, cleaved yes); made in house; host or cells: E. coli BL21(DE3)
T2 sequence (Q7L590 237-436): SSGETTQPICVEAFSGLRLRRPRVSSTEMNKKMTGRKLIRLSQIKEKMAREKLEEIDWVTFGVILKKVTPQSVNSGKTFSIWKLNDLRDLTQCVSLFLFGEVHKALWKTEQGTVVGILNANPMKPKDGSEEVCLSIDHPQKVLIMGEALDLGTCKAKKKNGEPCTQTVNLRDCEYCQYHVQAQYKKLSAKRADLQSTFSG
Description: as §1

T1 sequence (P27694 181-422): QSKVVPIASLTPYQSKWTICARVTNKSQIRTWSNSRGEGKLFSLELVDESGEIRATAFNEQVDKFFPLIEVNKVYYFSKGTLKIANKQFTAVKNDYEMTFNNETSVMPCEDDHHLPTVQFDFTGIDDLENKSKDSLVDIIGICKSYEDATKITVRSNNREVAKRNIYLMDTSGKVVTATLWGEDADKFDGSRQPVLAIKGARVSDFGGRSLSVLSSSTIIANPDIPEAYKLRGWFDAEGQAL

What does the source list for “5′-6-FAM-ATGGTAGGCA (DNA, 5' {FAM}, backbone and methylation of C not given here) [5’-6-FAM 10-mer ssDNA, 5′-6-carboxyfluorescein 10-mer DNA FP probe]”?
Kd (human RPA70AB): 400 nM; KD of FP probe for hMcm10-ID (hMcm10-ID): low micromolar affinity
